Assay results: patent US9901097B2, “Agricultural and horticultural fungicidal composition” (Nippon Soda Co., Ltd., priority 2011, dated 2018)
Read-outs that look alike come from different tables or passages of the source.

Experiments:
Botrytis cinerea = experiment: Sterilization test (growth inhibition of Botrytis cinerea in potato dextrose medium, 96-well microplate, turbidity 405 nm); format: cell-based; conditions: for inhibition at 2 ppm / inhibition at 10 ppm / inhibition at 0.02 ppm / inhibition at 0.4 ppm / inhibition at 0.08 ppm: Botrytis cinerea, read-out: Growth inhibition rate; for inhibition at 0.02 ppm: drug II alone 0.02 ppm; for inhibition at 0.4 ppm: drug II alone 0.4 ppm
Protocol: The solutions thus obtained were mixed to prepare fungicidal compositions.
Conidia of Botrytis cinerea were added to and dispersed in a potato dextrose culture medium. A fungicidal composition was added thereto and mixed. This was dispensed in a 96-well microplate and cultured at 20° C. for 3 days in a dark setting. Then, the turbidity was measured at a wavelength of 405 nm in a microplate reader. From comparison with the measured value of turbidity in the case of non-treatment (without the addition of the fungicidal composition), the growth inhibition rate of Botrytis cinerea (%) was calculated. The test was carried out in duplicate. Further, the expected value of the growth inhibition was calculated based on Colby's equation.
(§1) In addition, the Colby's equation is E=M+N−MN/100. Here, E is the expected value of a growth inhibition rate (%), M is the growth inhibition rate (%) calculated from the measurement with the use of the drug I alone, and N is the growth inhibition rate (%) calculated from the measurement with the use of the drug II alone. Additionally, in Tables, the expected values with the use of the drug alone were not shown, because they were the same as the values calculated from the measurement.
At the concentrations shown in Tables 6 to 8, the drug I and the drug II were dissolved separately in dimethyl sulfoxide. The obtained solution was mixed to prepare a fungicidal composition.
Using the same methods as in Example 1 and Comparative Example 1, the sterilization test was carried out. Additionally, in Tables, the expected values with the use of the drug alone were not shown, because they were the same as the values calculated from the measurement.

[1] = tested on: cucumber gray mold disease pathogens (Botrytis cinerea); experiment: Control test for cucumber gray mold disease (sprayed cucumber seedlings); format: in vivo; conditions: Botrytis cinerea; for pest or weed control at 100 ppm: drug II alone 100 ppm; for pest or weed control at 400 ppm: drug II alone 400 ppm; for pest or weed control at 1.6 ppm: drug II alone 1.6 ppm; for pest or weed control at 6.3 ppm: drug II alone 6.3 ppm
Protocol: The drug I and the drug II were dissolved in an organic solvent and a surfactant, and the prepared mixed emulsifiable concentrate was diluted with water to a predetermined concentration, and sprayed to cucumber seedlings that had been cultivated in unglazed pots (cultivar “Sagamihanjiro” cotyledon stage). Additionally, in Tables, the symbol A indicating the drug I represents a nitrogen-containing heterocyclic compound represented by the formula (A), the symbol B indicating the drug I represents a nitrogen-containing heterocyclic compound represented by the formula (B), and the symbol C indicating the drug I represents a nitrogen-containing heterocyclic compound represented by the formula (C). Further, the number indicating the drug II represents each of the compounds described in the numbers described above. Additionally, “-” in Tables represents that the drug was not used.
After air-drying at room temperature, a suspension of the conidia of cucumber gray mold disease pathogens (Botrytis cinerea) was inoculated by dropwise addition and held in a dark room at 20° C. with a high humidity for 3, 4, or 5 days. By investigation on the state of lesion appearance in leaves with comparison with a non-treatment case, the controlling effect was determined. The test was carried out in duplicate. In addition, the expected value of the controlling effect was calculated based on Colby's equation.
At the same time, in Comparative Example, in the case of using the drug I only and the case of using the drug II only, the test was carried out by the same method.
as §1, with “Additionally,” for “In addition,”, “the controlling effect” for “a growth inhibition rate”, “controlling effect” for “growth inhibition rate”, “were” for “were not shown, because they were”, “measurement, and were thus not shown.” for “measurement.”

[2] = Example 1 (Tables 1-5), drug II alone 2 ppm
[3] = Example 1 (Tables 1-5), drug II alone 10 ppm
[4] = 96 h, 4 days after inoculation, read-out: Control effect (%)
[5] = 96 h, Table 9, 4 days after inoculation, read-out: Control effect
[6] = 120 h, Table 10, 5 days after inoculation, read-out: Control effect
[7] = Example 1 (Tables 1-5), drug II alone 0.08 ppm
[8] = Example 2 (Tables 6-8), drug II alone 10 ppm

C[C@@]1(c2ccc(Oc3ccccc3)cc2)OC(=O)N(Nc2ccccc2)C1=O (racemic) [Drug 9, Famoxadone]
inhibition at 2 ppm (Botrytis cinerea; [2]): 0%

O=C(Cc1ccccc1)N/C(=N\OCC1CC1)c1c(C(F)(F)F)ccc(F)c1F [Drug 1, Cyflufenamid]
inhibition at 10 ppm (Botrytis cinerea; [3]): 9% | pest or weed control at 25 ppm ([1]; 120 h, Table 10, 5 days after inoculation, drug II alone 25 ppm, read-out: Control effect): 0%

CCCOC/C(=N\c1ccc(Cl)cc1C(F)(F)F)n1ccnc1 [Drug 2, Triflumizole]
inhibition at 2 ppm (Botrytis cinerea; [2]): 59% | pest or weed control at 100 ppm [1, 4]: 1% | pest or weed control at 400 ppm [1, 5]: 64% | pest or weed control at 100 ppm [1, 6]: 33%

COC(=O)NC(=S)Nc1ccccc1NC(=S)NC(=O)OC [Drug 3, Thiophanate-methyl]
inhibition at 0.02 ppm (Botrytis cinerea; Example 1 (Tables 1-5)): 0% | pest or weed control at 1.6 ppm [1, 5]: 3% | pest or weed control at 6.3 ppm [1, 6]: 89%

COCC(=O)N(c1c(C)cccc1C)C(C)C(=O)OC (stereo not drawn) [Drug 6, Metalaxyl]
inhibition at 10 ppm (Botrytis cinerea; [3]): 0%

CCNC(=O)NC(=O)/C(C#N)=N/OC [Drug 7, Cymoxanil]
inhibition at 2 ppm (Botrytis cinerea; [2]): 0%

CC(C)OC(=O)N[C@H](C(=O)N[C@H](C)c1nc2ccc(F)cc2s1)C(C)C [Drug 8, Benthiavalicarb-isopropyl]
inhibition at 10 ppm (Botrytis cinerea; [3]): 0%

CCCCCCCCc1c(CC)nc2ncnn2c1N [Drug 10, Ametoctradin]
Growth inhibition rate (Botrytis cinerea; [3]): 0%

O=C(NCc1ncc(C(F)(F)F)cc1Cl)c1c(Cl)cccc1Cl [Drug 11, Fluopicolide]
Growth inhibition rate (Botrytis cinerea; [3]): 6%

CCC(C)(NC(=O)c1cc(Cl)c(C)c(Cl)c1)C(=O)CCl (stereo not drawn) [Drug 12, Zoxamide]
inhibition at 0.4 ppm (Botrytis cinerea; Example 1 (Tables 1-5)): 3%

CCO[PH](=O)O [Drug 13, Fosetyl]
inhibition at 0.08 ppm (Botrytis cinerea; [7]): 2%

Cc1ccc(-c2c(Cl)nc(C#N)n2S(=O)(=O)N(C)C)cc1 [Drug 14, Cyazofamid]
inhibition at 10 ppm (Botrytis cinerea; [3]): 0%

CCCOc1nc2ccc(I)cc2c(=O)n1CCC [Drug 15, Proquinazid]
Growth inhibition rate (Botrytis cinerea; [3]): 0%

COc1cc(C)c(C(=O)c2c(OC)ccc(Br)c2C)c(OC)c1OC [Drug 16, Metrafenone]
inhibition at 10 ppm (Botrytis cinerea; [3]): 0%

Fc1ccc(Oc2ccnc3cc(Cl)cc(Cl)c23)cc1 [Drug 17, Quinoxifen]
Growth inhibition rate (Botrytis cinerea; [2]): 0%

CC(C)Oc1cccc(NC(=O)c2ccccc2C(F)(F)F)c1 [Drug 18, Flutolanil]
inhibition at 10 ppm (Botrytis cinerea; [3]): 0%

Cc1c(Cl)cc(-c2ccc(=O)[nH]n2)cc1Cl [Drug 19, Diclomezin]
Growth inhibition rate (Botrytis cinerea; [3]): 0%

N#Cc1c[nH]cc1-c1cccc2c1OC(F)(F)O2 [Drug 20, Fludioxonil]
inhibition at 0.02 ppm (Botrytis cinerea; Example 1 (Tables 1-5)): 39%

CC1COC(Cn2cncn2)(c2ccc(Oc3ccc(Cl)cc3)cc2Cl)O1 (stereo not drawn) [Drug 21, Difenoconazole]
inhibition at 0.4 ppm (Botrytis cinerea; Example 1 (Tables 1-5)): 36%

CC(C)(C)C(O)(CCc1ccc(Cl)cc1)Cn1cncn1 (stereo not drawn) [Drug 22, Tebuconazole]
inhibition at 0.08 ppm (Botrytis cinerea; [7]): 34%

CC1=C(C(=O)Nc2ccccc2)SCCO1 [Drug 23, Carboxin]
inhibition at 0.4 ppm (Botrytis cinerea; Example 1 (Tables 1-5)): 0%

CN(C)C(=S)SSC(=S)N(C)C [Drug 24, Thiram]
inhibition at 0.08 ppm (Botrytis cinerea; [7]): 30%

N#Cc1c(Cl)c(Cl)c(Cl)c(C#N)c1Cl [Drug 25, Chlorothalonil]
inhibition at 0.08 ppm (Botrytis cinerea; [7]): 4%

CON=C(C(=O)OC)c1ccccc1CON=C(C)c1cccc(C(F)(F)F)c1 [Drug 26, Trifloxystrobin]
inhibition at 0.08 ppm (Botrytis cinerea; [7]): 32%

CO/C=C(/C(=O)OC)c1ccccc1Oc1cc(Oc2ccccc2C#N)ncn1 [Drug 27, Azoxystrobin]
Growth inhibition rate (Botrytis cinerea; [7]): 30%

CO/N=C(/C(=O)OC)c1ccccc1COc1ccccc1C [Drug 28, Kresoxim-methyl]
inhibition at 0.08 ppm (Botrytis cinerea; [7]): 20%

O=C(NCCc1ncc(C(F)(F)F)cc1Cl)c1ccccc1C(F)(F)F [Drug 30, Fluopyram]
inhibition at 0.08 ppm (Botrytis cinerea; [7]): 16%

O=[N+]([O-])c1cc(C(F)(F)F)c(Cl)c([N+](=O)[O-])c1Nc1ncc(C(F)(F)F)cc1Cl [Drug 31, Fluazinam]
inhibition at 0.02 ppm (Botrytis cinerea; Example 1 (Tables 1-5)): 20%

O=C1C2CC=CCC2C(=O)N1SC(Cl)(Cl)Cl (stereo not drawn) [Drug 33, Captan]
inhibition at 0.02 ppm (Botrytis cinerea; Example 1 (Tables 1-5)): 28%

Cc1cc(C2CC2)nc(Nc2ccccc2)n1 [Drug 34, Cyprodinil]
inhibition at 0.02 ppm (Botrytis cinerea; Example 1 (Tables 1-5)): 0%

COP(=S)(OC)Oc1c(Cl)cc(C)cc1Cl [Drug 35, Tolclofos-methyl]
inhibition at 10 ppm (Botrytis cinerea; [3]): 35%

CC(C)NC(=O)N1CC(=O)N(c2cc(Cl)cc(Cl)c2)C1=O [Drug 36, Iprodione]
inhibition at 0.4 ppm (Botrytis cinerea; Example 1 (Tables 1-5)): 39%

O=C1c2ccccc2C(=O)N1SC(Cl)(Cl)Cl [Drug 37, Folpet]
inhibition at 0.02 ppm (Botrytis cinerea; Example 1 (Tables 1-5)): 10%

Cc1cc(C(F)(F)F)nn1CC(=O)N1CCC(c2nc(C(=O)N(C)C3CCCc4ccccc43)cs2)CC1 (stereo not drawn) [Drug 39]
inhibition at 10 ppm (Botrytis cinerea; [3]): 13%

CNC(=O)/C(=N/OC)c1ccccc1CO/N=C(C)/C(=N/OC)C(/C)=N/OC [Drug 40, Orysastrobin]
Growth inhibition rate (Botrytis cinerea; [8]): 58%

CC(C)OC(=O)C(C(=O)OC(C)C)=C1SCCS1 [Drug 41, Isoprothiolane]
inhibition at 10 ppm (Botrytis cinerea; [8]): 10%

O=[N+]([O-])NC1=NCCN1Cc1ccc(Cl)nc1 [Drug 45, Imidacloprid]
inhibition at 10 ppm (Botrytis cinerea; [8]): 0%

CN1COCN(Cc2cnc(Cl)s2)/C1=N\[N+](=O)[O-] [Drug 46, Thiamethoxam]
inhibition at 10 ppm (Botrytis cinerea; [8]): 0%

CN/C(=N\[N+](=O)[O-])NCc1cnc(Cl)s1 [Drug 47, Clothianidin]
inhibition at 10 ppm (Botrytis cinerea; [8]): 4%

CCOP(=S)(OCC)Oc1nc(Cl)c(Cl)cc1Cl [Drug 48, Chlorpyrifos]
inhibition at 10 ppm (Botrytis cinerea; [8]): 0%

CS/C(C)=N\OC(=O)N(C)SN(C)C(=O)O/N=C(\C)SC [Drug 49, Thiodicarb]
inhibition at 10 ppm (Botrytis cinerea; [8]): 0%

CN/C(=N/CC1CCOC1)N[N+](=O)[O-] (stereo not drawn) [Drug 51, Dinotefuran]
inhibition at 10 ppm (Botrytis cinerea; [8]): 0%

CCOc1ccc(C(C)(C)COCc2cccc(Oc3ccccc3)c2)cc1 [Drug 52, Etofenprox]
inhibition at 10 ppm (Botrytis cinerea; [8]): 4%

N#Cc1nn(-c2c(Cl)cc(C(F)(F)F)cc2Cl)c(N)c1[S+]([O-])C(F)(F)F (stereo not drawn) [Drug 53, Fipronil]
inhibition at 10 ppm (Botrytis cinerea; [8]): 12%

CC[S+]([O-])c1c(C#N)nn(-c2c(Cl)cc(C(F)(F)F)cc2Cl)c1N (stereo not drawn) [Drug 54, Ethiprole]
inhibition at 10 ppm (Botrytis cinerea; [8]): 2%

CC1=NNC(=O)N(/N=C/c2cccnc2)C1 [Drug 55, Pymetrozine]
inhibition at 10 ppm (Botrytis cinerea; [8]): 3%

Cc1nc(C(F)(F)F)c(C(=O)Nc2c(Br)cc(OC(F)(F)F)cc2Br)s1 [Drug 56, Thifluzamide]
inhibition at 10 ppm (Botrytis cinerea; [8]): 28%

CC(C)N1C(=O)N(c2ccccc2)CS/C1=N\C(C)(C)C [Drug 57, Buprofezin]
inhibition at 10 ppm (Botrytis cinerea; [8]): 0%

O=C(Nc1ccccc1-c1ccc(Cl)cc1)c1cccnc1Cl [Drug 58, Boscalid]
pest or weed control at 0.4 ppm ([1]; 96 h, 4 days after inoculation, drug II alone 0.4 ppm, read-out: Control effect (%)): 0% | pest or weed control at 1.6 ppm [1, 4]: 0% | pest or weed control at 6.3 ppm [1, 4]: 39%

CCOCn1c(-c2ccc(Cl)cc2)c(C#N)c(Br)c1C(F)(F)F [Drug 59, Chlorfenapyr]
pest or weed control at 400 ppm [1, 4]: 0%

Manzeb [Drug 32]
Growth inhibition rate (Botrytis cinerea; [2]): 11%

Spinosad [Drug 50]
Growth inhibition rate (Botrytis cinerea; [8]): 0%
